Data on three compounds can be found in patent US9475843B2 (Zhejiang University, priority 2015, dated 2016).

Converted amounts (≈) assume the structure as drawn. Read-outs that look alike come from different tables or passages of the source. No end group written: not given here.

One series deals with porcine erythrocytes. The procedure: Blood was collected from porcine vena cava with heparin added, and mixed with RPMI1640 medium at a volume ratio of 1:1. After centrifuging with FICOLL-PAQUE™, circular and milky peripheral blood mononuclear cells (PMBCs) were drawn for later use, and erythrocytes at the bottom were collected. The erythrocytes were washed with 1×PBS until the supernatant was colorless. Then the washed erythrocytes were diluted 90-fold (1:89) with 1×PBS to determine hemolysis activity.
Triton X-100 (final concentration 1%) was used as positive control, and 10 uL 1×PBS was used as negative control. Each group was performed with 6 replications. Cells were cultured for 24 hrs at 37° C. in a cell culture incubator, and followed by centrifugation at 1500 rpm for 20 min. Then supernatant was transferred to a new 96-well plate to measure the values of OD at 414 nm and 546 nm using a microplate reader, and ΔOD was calculated. The formula for calculating hemolysis ratio is as follows: hemolysis ratio (%)=100%*(ΔOD treatment group−ΔOD negative control)/(ΔOD positive control−ΔOD negative control).
(§1) The aforementioned antimicrobial peptides were used as controls in the same experiments described in the second, third, fourth and fifth embodiments.

Another series relates to E. coli EPEC O78:K80. The procedure:
(§2) Bacteria was inoculated on Mueller-Hinton (MH) agar plate, the inoculated agar plate was inverted to grow single colonies. A single colony was inoculated in 3 mL MH broth, and the broth was cultured with constant shaking at constant temperature until turbid. 30 μL of bacterial suspension was then transferred to 3 mL of fresh MH broth, and the broth was cultured with shaking at constant temperature until OD600≈0.5. 10 μL bacterial suspension was transferred to 10 mL fresh MH broth and then vortexed to mix well. […] In addition, 100 μL of bacterial suspension was added to a well as positive control, and 100 μL of MH broth was added to a well as negative control. Each testing condition and controls was performed with 6 repeats.
as §1

A further series concerns E. coli EPEC O144:K26. As for the experimental part: as §2, §1
A further series concerns P. aeruginosa CMCC27853. The procedure: as §2, §1
Another series concerns S. enteritidis CMCC50041. The procedure: as §2, §1
The next series relates to S. typhimurium CMCC50013. As for the experimental part:
as §2, §1

A further series deals with S. aureus ATCC25923. The procedure:
as §2, §1

The next series concerns S. epidermidis ATCC12228. The procedure:
as §2, §1

The test system of a further series is E. coli ATCC25922. As for the experimental part:
as §2, §1

A further series relates to E. coli K 88. The procedure: as §2, §1
The next series has as its system E. coli K 12. As for the experimental part:
as §2, §1

The next series relates to E. coli EPEC O44:K74. The procedure:
as §2, §1

In series [1] the test system is S. choleraesuis CMCC50020.
Source text: The above results are average of 6 independent experimental repeats.
For series [2], the system named is Porcine macrophage cells (3D4/2 cell line). Briefly: LPS-induced inflammation in porcine macrophages (cytokine mRNA). Type of series: cell-based. The conditions noted are these: FIG. 5. As for the experimental part:
Porcine macrophage cells (3D4/2 cell line) were cultured on RPMI-1640 medium with 10% fetal bovine serum, at 37° C. in a 5% CO2 cell incubator, until the cells formed a monolayer with about 80-90% confluency. The cells were counted and plated. The cells were seeded to a 6-well plate at 1×10^6/well, RPMI-1640 complete medium was added, and the cells were cultured to 80% confluency. Then the medium was replaced by fresh serum-free RPMI-1640 medium (2 mL). […] Each group of experiments was repeated for six replications. After incubation for 24 hrs, cells were collected and total RNA was extracted using Trizol. cDNA was obtained by reverse transcription. Relative mRNA expression of IL-6, IL-8 and IL-22 was detected. The relative mRNA expression of IL-22, IL-8 and IL-6 were measured by quantitative fluorescence method. GAPDH gene was used as a internal reference gene.

Series [3] concerns porcine peripheral mononuclear cells. The settings on record: porcine PBMCs, peptide ≦256 μg/mL, 24 hrs.
Procedure: Purified PBMCs were diluted to 1×10^6 cells/mL, and cells were seeded with 90 uL per well in a 96-well plate. Further, background control well (100 μL RMPI1640 medium), low level control well (90 μL cell culture+10 μL PBS), and high level control well (90 μL cell culture+10 μL 20% Triton X-100) were also prepared. The 96-well plate was cultured at 37° C. for 2 hrs in a 5% CO2 incubator. […] Each group of experiment (each concentration) was repeated for six replications. After culturing for 24 hrs, 10 μL TritonX-100 (20%) was added to each positive control well, and mixed by pipetting. The plate was further incubated for 15 min. After culturing, the cells were centrifuged at 1500 rpm for 10 min. 60 μL of supernatant was drawn carefully from the center of each well and transferred to corresponding wells of a transparent new 96-well plate. 30 uL of LDH diluent was added to each well. The plate was cultured at room temperature for 30 min with vibration in a dark environment. OD values were recorded at 492 nm and 900 nm using a microplate reader for calculating ΔOD value. […]

For the compound `CC(C)C[C@H](NC(=O)[C@H](CCCNC(=N)N)NC(=O)CNC(=O)CNC(=O)[C@@H](N)CCCNC(=N)N)C(=O)N[C@H]1CSSC[C@@H](C(=O)N[C@H](C(=O)NCC(=O)N[C@@H](CCCNC(=N)N)C(N)=O)C(C)C)NC(=O)[C@H](C(C)C)NC(=O)[C@@H]2CSSC[C@H](NC(=O)[C@H](Cc3ccc(O)cc3)NC1=O)C(=O)N[C@@H](CCCNC(=N)N)C(=O)N[C@@H](CCCNC(=N)N)C(=O)N[C@@H](CCCNC(=N)N)C(=O)N[C@@H](Cc1ccccc1)C(=O)N2` [PG-1], in the series on porcine erythrocytes (FIG. 4), the “hemolysis activity (compared with WY-21)” value is listed as “higher than WY-21”. For the same compound, the MIC – broadly, the smallest concentration in the dilution series that meets the test's criterion for growth inhibition – against E. coli EPEC O78:K80 (EPEC O78:K80, 24 h) was 16 µg/mL (≈ 7.42 µM); with E. coli EPEC O144:K26 (EPEC O144:K26, 24 h), 64 µg/mL (≈ 29.7 µM); with P. aeruginosa CMCC27853 (CMCC27853, 24 h), 8 µg/mL (≈ 3.71 µM); in the series with S. enteritidis CMCC50041 (CMCC50041, 24 h), 16 µg/mL (≈ 7.42 µM); against S. typhimurium CMCC50013 (CMCC50013, 24 h), 4 µg/mL (≈ 1.86 µM); against S. aureus ATCC25923 (ATCC25923, 24 h), 2 µg/mL (≈ 0.928 µM). In addition, the MIC against S. epidermidis ATCC12228 (ATCC12228, 24 h) came out at 4 µg/mL (≈ 1.86 µM); in the series with E. coli ATCC25922 (ATCC25922, 24 h) it was 4 µg/mL (≈ 1.86 µM); against E. coli K 88 (K 88, 24 h) it was 8 µg/mL (≈ 3.71 µM); in the series with E. coli K 12 (K 12, 24 h), 8 µg/mL (≈ 3.71 µM); in the series with E. coli EPEC O44:K74 (EPEC O44:K74, 24 h), 32 µg/mL (≈ 14.8 µM); in series [1] (CMCC50020, 24 h) it was 4 µg/mL (≈ 1.86 µM).

For SWLSKTAKKLENSAKKRIAIAIQGGPR [CP-1], the “effect on LPS-induced inflammation” value in series [2] is listed as “no effects”. Moreover, the minimum inhibitory concentration (MIC) against E. coli EPEC O78:K80 (EPEC O78:K80, 24 h) stood at 16 µg/mL; with E. coli EPEC O144:K26 (EPEC O144:K26, 24 h) it was 128 µg/mL; against P. aeruginosa CMCC27853 (CMCC27853, 24 h), 16 µg/mL; in the series on S. enteritidis CMCC50041 (CMCC50041, 24 h), 16 µg/mL; in the series on S. typhimurium CMCC50013 (CMCC50013, 24 h), 8 µg/mL; against S. aureus ATCC25923 (ATCC25923, 24 h), 128 µg/mL. Further, the minimal inhibitory concentration (MIC) against S. epidermidis ATCC12228 (ATCC12228, 24 h) is 128 µg/mL; with E. coli ATCC25922 (ATCC25922, 24 h), 4 µg/mL; with E. coli K 88 (K 88, 24 h), 4 µg/mL; with E. coli K 12 (K 12, 24 h) it was 8 µg/mL; in the series on E. coli EPEC O44:K74 (EPEC O44:K74, 24 h) it was 32 µg/mL; in series [1] (CMCC50020, 24 h), 8 µg/mL.

As for VKFFRKLKKSVKEKIGKEFKR [WY-21], the hemolysis ratio result in the series on porcine erythrocytes (peptide 512 μg/mL, 24 hrs at 37° C.) was “less than 5%”. The MIC against E. coli EPEC O78:K80 (E. coli EPEC O78:K80, 24 hrs at 37° C., MH broth) was 16 µg/mL; against E. coli EPEC O144:K26 (E. coli EPEC O144:K26, 24 hrs at 37° C., MH broth), 16 µg/mL; with P. aeruginosa CMCC27853 (P. aeruginosa CMCC27853, 24 hrs at 37° C., MH broth), 8 µg/mL; with S. enteritidis CMCC50041 (S. enteritidis CMCC50041, 24 hrs at 37° C., MH broth), 64 µg/mL; against S. typhimurium CMCC50013 (S. typhimurium CMCC50013, 24 hrs at 37° C., MH broth), 16 µg/mL; with S. aureus ATCC25923 (S. aureus ATCC25923, 24 hrs at 37° C., MH broth), 8 µg/mL. Further, the minimum inhibitory concentration (MIC) with S. epidermidis ATCC12228 (S. epidermidis ATCC12228, 24 hrs at 37° C., MH broth) was 32 µg/mL; against E. coli ATCC25922 (E. coli ATCC25922, 24 hrs at 37° C., MH broth) it was 8 µg/mL; in the series on E. coli K 88 (E. coli K 88, 24 hrs at 37° C., MH broth) it was 8 µg/mL; with E. coli K 12 (E. coli K 12, 24 hrs at 37° C., MH broth), 4 µg/mL; against E. coli EPEC O44:K74 (E. coli EPEC O44:K74, 24 hrs at 37° C., MH broth), 8 µg/mL; in series [1] (S. choleraesuis CMCC50020, 24 hrs at 37° C., MH broth), 16 µg/mL. Further, the LDH releasing rate entry in series [3] was “less than 10%”.
